Patent US20170368082A1, “FORMULATIONS OF BRINCIDOFOVIR” (priority 2016, published 2017)
Read-outs that look alike come from different tables or passages of the source.

Test: Phase 2 toxicokinetics of brincidofovir and cidofovir in plasma
Type: in vivo, Sprague-Dawley CD rats
Conditions: for Cmax/Dose / Tlast / AUClast/Dose / AUC(0-t) / Cmax / Tmax: brincidofovir in plasma; for concentration at 1 h / concentration at 2 h / concentration at 8 h / concentration at 24 h / concentration at 0 h / AUC(0-t) / Cmax / Tmax: female, Sprague-Dawley CD, rat, plasma; for concentration at 1 h / concentration at 2 h / concentration at 8 h / concentration at 24 h / concentration at 0 h: intravenous; for AUC(0-t) / Cmax / Tmax: iv; for Tmax: read-out: Tmax
Procedure: Plasma samples (108) were collected 2 hours following the initiation of dosing on Day 1 and Day 7 (Group 1), or at 1, 2, 8, and 24 hours following the initiation of dosing on Day 1, and prior to administration and at 2, 8, and 24 hours following the initiation of dosing on Day 7 (Groups 2 and 3), and analyzed to determine the concentrations of brincidofovir and the metabolite, cidofovir), by LC/MS/MS.
Approximately 0.4 mL of whole blood was obtained via the tail vein from each animal at each time point. Animals were not fasted prior to blood collection. Blood was collected into tubes containing K2EDTA anticoagulant and placed on wet ice in an upright position, per facility SOP prior to processing. Plasma was separated by centrifugation (10 minutes at approximately 2000 g, at approximately 2-8° C.). Approximately 0.10 mL of plasma was transferred into a single cryotube appropriately labeled with study number, animal number, time point, date of sampling and sample type. Remaining plasma was transferred into a second cryotube and retained as a backup sample. Plasma frozen at approximately −80±10° C. within approximately 2 hours after collection of each blood sample until analysis. Animals were euthanized (CO2 inhalation) after the final blood collection.
In general, TK parameters were estimated using mean plasma concentrations of brincidofovir and cidofovir derived from the composite blood sampling design using Phoenix WinNonLin (V 6.3).
A composite blood sampling design was used such that each rat was sampled twice per sampling day. Blood was collected via tail vein from unanesthetized animals into tubes containing anticoagulant and placed on wet ice in an upright position. Animals were not fasted prior to blood collection. Plasma was separated by centrifugation (for 10 minutes at approximately 2000 g, at approximately 2-8° C.), and transferred into individually labeled cryotubes. All cryotubes containing the collected plasma samples were appropriately labeled as to study number, animal number, time point, date of sampling and sample type. All plasma samples were obtained and frozen at approximately −80° C. (±10° C.) within approximately 2 hours after collection of each blood sample until analysis.
Rat plasma bioanalysis was conducted by Pyxant Laboratories. Plasma samples were analyzed for concentrations of brincidofovir and cidofovir using a method based upon protein precipitation extraction followed by LC-MS/MS analysis; calibration ranges for brincidofovir and cidofovir were 1.00-1500 ng/mL and 5.00-750 ng/mL, respectively, (Pyxant study number 3025) for a 50 μL aliquot of rat plasma. Sample analysis for ISR was not performed as part of this non-GLP study.
For the generation of Mean Profiles, all sample concentrations that were below the limit of quantitation (BLQ) were set to 0.
All pharmacokinetic parameter estimates were completed using a Non-Compartmental Model (Model 200-202 for IV infusion administration). The AUClast and AUCinf were calculated using the linear up log down trapezoidal rule.

[1] = 1 mg/kg 2-hour IV infusion, Male rats, Day 1
[2] = 1 mg/kg 2-hour IV infusion, Male rats, Day 7
[3] = 15 mg/kg 2-hour IV infusion, Female rats, Day 1
[4] = 15 mg/kg 2-hour IV infusion, Female rats, Day 7
[5] = 15 mg/kg 2-hour IV infusion, Male rats, Day 1
[6] = 15 mg/kg 2-hour IV infusion, Male rats, Day 7
[7] = 1 mg/kg, 1 mg/kg 2-hour IV infusion, Female rats, Day 1
[8] = 1 mg/kg, 1 mg/kg 2-hour IV infusion, Female rats, Day 7

Structure (SMILES): CCCCCCCCCCCCCCCCOCCCOP(=O)(O)CO[C@H](CO)Cn1ccc(N)nc1=O [Brincidofovir]
- Cmax/Dose [1]: 235 (ng/mL)/(mg/kg)
- Tlast [1]: 2 h
- Cmax/Dose [2]: 208 (ng/mL)/(mg/kg)
- Tlast [2]: 2 h
- AUClast/Dose [3]: 491 (h*ng/mL)/(mg/kg)
- Cmax/Dose [3]: 231 (ng/mL)/(mg/kg)
- Tlast [3]: 24 h
- AUClast/Dose [4]: 228 (h*ng/mL)/(mg/kg)
- Cmax/Dose [4]: 110 (ng/mL)/(mg/kg)
- Tlast [4]: 24 h
- AUClast/Dose [5]: 585 (h*ng/mL)/(mg/kg)
- Cmax/Dose [5]: 291 (ng/mL)/(mg/kg)
- Tlast [5]: 24 h
- AUClast/Dose [6]: 273 (h*ng/mL)/(mg/kg)
- Cmax/Dose [6]: 127 (ng/mL)/(mg/kg)
- Tlast [6]: 24 h
- concentration at 1 h (1 mg/kg, brincidofovir 1 mg/kg, Female, Day 1, 1 h, read-out: brincidofovir Imputed Mean Concentration (IMC)): 137 ng/mL
- concentration at 1 h (1 mg/kg, brincidofovir 1 mg/kg, Female, Day 1, 1 h, read-out: brincidofovir Mean Concentration (MC)): 137 ng/mL
- concentration at 2 h (1 mg/kg, brincidofovir 1 mg/kg, Female, Day 1, 2 h, read-out: brincidofovir Imputed Mean Concentration (IMC)): 191 ng/mL
- concentration at 2 h (1 mg/kg, brincidofovir 1 mg/kg, Female, Day 1, 2 h, read-out: brincidofovir Mean Concentration (MC)): 191 ng/mL
- concentration at 8 h (1 mg/kg, brincidofovir 1 mg/kg, Female, Day 1, 8 h, read-out: brincidofovir Imputed Mean Concentration (IMC)): 1.25 ng/mL
- concentration at 8 h (1 mg/kg, brincidofovir 1 mg/kg, Female, Day 1, 8 h, read-out: brincidofovir Mean Concentration (MC)): 1.25 ng/mL
- concentration at 24 h (1 mg/kg, brincidofovir 1 mg/kg, Female, Day 1, 24 h, read-out: brincidofovir Mean Concentration (MC)): 0 ng/mL
- concentration at 0 h (1 mg/kg, brincidofovir 1 mg/kg, Female, Day 7, 0 h, read-out: brincidofovir Imputed Mean Concentration (IMC)): 0 ng/mL
- concentration at 0 h (1 mg/kg, brincidofovir 1 mg/kg, Female, Day 7, 0 h, read-out: brincidofovir Mean Concentration (MC)): 0 ng/mL
- concentration at 2 h (1 mg/kg, brincidofovir 1 mg/kg, Female, Day 7, 2 h, read-out: brincidofovir Imputed Mean Concentration (IMC)): 95.4 ng/mL
- concentration at 2 h (1 mg/kg, brincidofovir 1 mg/kg, Female, Day 7, 2 h, read-out: brincidofovir Mean Concentration (MC)): 95.4 ng/mL
- concentration at 8 h (1 mg/kg, brincidofovir 1 mg/kg, Female, Day 7, 8 h, read-out: brincidofovir Imputed Mean Concentration (IMC)): 2.19 ng/mL
- concentration at 8 h (1 mg/kg, brincidofovir 1 mg/kg, Female, Day 7, 8 h, read-out: brincidofovir Mean Concentration (MC)): 2.19 ng/mL
- concentration at 1 h (1 mg/kg, brincidofovir 1 mg/kg 2-h IV infusion, female rats, Day 1, 1 h, BLQ imputed as zero, read-out: Imputed Concentration, Mean): 137 ng/mL
- concentration at 1 h (1 mg/kg, brincidofovir 1 mg/kg 2-h IV infusion, female rats, Day 1, 1 h, BLQ imputed as zero, read-out: Imputed Concentration, individual animals): 109 ng/mL
- concentration at 2 h (1 mg/kg, brincidofovir 1 mg/kg 2-h IV infusion, female rats, Day 1, 2 h, BLQ imputed as zero, read-out: Imputed Concentration, Mean): 191 ng/mL
- concentration at 2 h (1 mg/kg, brincidofovir 1 mg/kg 2-h IV infusion, female rats, Day 1, 2 h, BLQ imputed as zero, read-out: Imputed Concentration, individual animals): 253 ng/mL
- concentration at 8 h (1 mg/kg, brincidofovir 1 mg/kg 2-h IV infusion, female rats, Day 1, 8 h, BLQ imputed as zero, read-out: Imputed Concentration, Mean): 1.25 ng/mL
- concentration at 24 h (1 mg/kg, brincidofovir 1 mg/kg 2-h IV infusion, female rats, Day 1, 24 h, BLQ imputed as zero, read-out: Imputed Concentration, Mean): 0 ng/mL
- concentration at 24 h (1 mg/kg, brincidofovir 1 mg/kg 2-h IV infusion, female rats, Day 1, 24 h, BLQ imputed as zero, read-out: Imputed Concentration, individual animals): 0 ng/mL
- concentration at 0 h (1 mg/kg, brincidofovir 1 mg/kg 2-h IV infusion, female rats, Day 7, 0 h, BLQ imputed as zero, read-out: Imputed Concentration, individual animals): 0 ng/mL
- concentration at 2 h (15 mg/kg, 15 mg/kg, female rats, Day 1, 2 h, read-out: IC (Imputed Concentration), individual animals): 2460 ng/mL
- concentration at 8 h (15 mg/kg, 15 mg/kg, female rats, Day 1, 8 h, read-out: C (Concentration), individual animals): 5.05 ng/mL
- concentration at 8 h (15 mg/kg, 15 mg/kg, female rats, Day 1, 8 h, read-out: IC (Imputed Concentration), individual animals): 5.05 ng/mL
- concentration at 24 h (15 mg/kg, 15 mg/kg, female rats, Day 1, 24 h, read-out: C (Concentration), individual animals): 2.32 ng/mL
- concentration at 24 h (15 mg/kg, 15 mg/kg, female rats, Day 1, 24 h, read-out: IC (Imputed Concentration), individual animals): 2.32 ng/mL
- concentration at 8 h (15 mg/kg, 15 mg/kg, female rats, Day 7, 8 h, read-out: C (Concentration), individual animals): 5.32 ng/mL
- concentration at 8 h (15 mg/kg, 15 mg/kg, female rats, Day 7, 8 h, read-out: IC (Imputed Concentration), individual animals): 5.32 ng/mL
- concentration at 24 h (15 mg/kg, 15 mg/kg, female rats, Day 7, 24 h, read-out: C (Concentration), individual animals): 2.37 ng/mL
- AUC(0-t) [7]: 459 ng·h/mL
- Cmax [7]: 191 ng/mL
- Tmax [7]: 2 h
- AUC(0-t) [8]: 244 ng·h/mL
- Cmax [8]: 95.4 ng/mL
- Tmax [8]: 2 h
